Data published in patent US6627732B1, “Glutathione derivatives and their dosage forms” (Teijin Limited, priority 1998, dated 2003).
Each block holds one molecule with its values, some of them ahead of it.

Assays:
swine liver esterase = experiment: Decomposition of glutathione derivatives by swine liver esterase (physiological stability); assay type: in vitro ADME; conditions: BSA/D-PBS pH 7.4, 196-244 μg/ml
Method: (§1) (1) Bovine serum albumin (hereinafter referred to as BSA), Dulbecco's phosphate buffered saline (hereinafter referred to as D-PBS), swine liver esterase, and rabbit liver esterase were purchased from Sigma, 6-week old male SD rats were purchased from Nippon SLC, and 12-week old or older male Japanese white rabbits were purchased from Ichikawaya. On the day of the incubation experiment described below, blood was drawn from the animals in the presence of heparin, and plasma was separated therefrom for use. Human plasma was obtained from normal healthy males after obtaining their consent.
(§2) (2) The glutathione derivatives described in the Examples and Comparative Examples of the present invention were incubated for a fixed time in an enzyme solution having the following composition. Acetonitrile was added to the reaction mixture to inactivate the enzyme thereby to stop the reaction. The concentration of the glutathione derivatives in the deproteinized supernatant was measured by HPLC. For each time point of the esterase enzyme experiment, the mean values from two measurement or more were determined, and for the rats and rabbits the mean values of plasma samples from three individuals were determined. For some of the experiment data, changes with time of percentages relative to initial concentration of the glutathione derivative are shown in FIGS. 2 to 4.
(§3) Swine liver esterase and rabbit liver esterase experiment
(§4) 30 mg-BSA/ml-D-PBS (pH 7.4): 36 to 45 parts
(§5) Swine or rabbit liver esterase/D-PBS: 4-5 parts
(§6) 10 mg-glutathione derivative/ml-ethanol: one part (the final concentration in the reaction mixture is 196-244 μg/ml)

[1] = Stability in rabbit plasma
Method: as §1, §2
Rat, rabbit, and human plasma
Heparinized plasma: 30 to 40 parts
10 mg-glutathione derivative/ml-ethanol: one part (the final concentration in the reaction mixture is 250-323 μg/ml)

rabbit liver esterase = experiment: Decomposition of glutathione derivatives by rabbit liver esterase (physiological stability); assay type: in vitro ADME; conditions: BSA/D-PBS pH 7.4, 196-244 μg/ml
Method: as §1, §2, §3, §4, §5, §6

[2] = Pharmacokinetics after intravenous administration to rabbits, 2-compartment model (Example 25); assay type: in vivo, rabbit; conditions: iv auricular vein 2 ml/kg, fat emulsion (Comparative Ex. 1: HPCD/glucose solution)
From the text: For the glutathione derivative of the present invention having a long-chain ester having 12 carbons or more and the glutathione derivatives of the conventional technology of Comparative Examples 1 and 2, kinetics in the blood were compared in rabbits that are a species having allow esterase activity in the blood.
(1) Male Japanese white rabbits, 12-week old or older, were purchased from Ichikawaya, and those rabbits that became 15-week old or older and whose body weight reached about 3 kg were used for the experiment. During the period up to the experiment, the animals were allowed free access to the animal feed and drinking water and were kept at a temperature of 24±2° C. and a humidity of 55±5%.
(2) The glutathione derivative having a long-chain ester of 12 carbons or more and the glutathione derivative of Comparative Example 2 were prepared at 20-200 mg/ml in a mixture of ethanol or ethanol:benzyl alcohol, which was mixed with the fat emulsion just prior to use, and was filtered with a 1.2 μm filter to obtain a liquid for intravenous administration. On the other hand, the glutathione derivative of Comparative Example 1 was dissolved in an aqueous solution of 6%-hydroxypropyl-β-cyclodextrin/5%-glucose at 15 mg/ml to obtain an administration liquid.
(3) The administration liquid of the glutathione derivative obtained in (2) at a dose of 2 ml/kg was rapidly infused into the left auricular vein of the rabbits under no anesthesia and under restraint at a rate of 1 ml/min. Each glutathione derivative was given to three or more rabbits. At 5, 10, 15, 30, 60, 120, and 240 minutes after the completion of the administration, 1 ml of the blood was drawn from the right auricular vein in the presence of heparin, which was immediately cooled on ice. Plasma was obtained by centrifuging the blood, 1-2 volume parts of acetonitrile was added to deproteinize the supernatant, which was filtered by a 0.5 μm filter. The supernatant of the filtrate was quantitated by HPLC.

[3] = tested on: human leukemia cell HL-60; experiment: HL-60 cell differentiation induction, NBT reducing activity (Example 20); assay type: cell-based; conditions: 4 days
Method: Using the differentiation induction effect on the granulocytes or monocytes/macrophages obtained by culturing the human leukemia cell HL-60 in the presence of 9-cys-retinoic acid (9-cis-RA) or activated vitamin D3 (1α, 25(OH)2D3), and in the coexistence of the glutathione derivatives of Examples and the Comparative Examples of the present invention, the growth-promotion activity was tested.
(1) HL-60 cells used were purchased from the cell bank (Japanese Cancer Research Resource Bank, Cell No. JCRBOO85). In accordance with a standard method, the lyophilized cell stocks that were thawed before the start of the experiment and subcultured were used.
Subculturing was carried out by centrifuging (1500 rpm, 5 minutes) the cells in suspension culture and recovering and by diluting it in a fresh culture liquid at a concentration of about 1/100 (1 to 2×10^4 cells/ml). As the culture liquid, an RPMI 1640 medium containing 10% fetal bovine serum was used.
(2) The cells subcultured in (1) were recovered by centrifugation (1500 rpm, 5 minutes), and were dispersed in the culture liquid at 2×10^4 cells/ml, which were plated on a 24-well culture plate at 1 ml/well. To this system were added the glutathione derivatives of Example 4, Example 11, Comparative Example 1 and Comparative Example 2 and a differentiation induction substance (9-cis-RA or 1α, 25(OH)2D3). Thus, 1 μl per well each of an ethanol solution of the differentiation induction substances 9-cis-RA and 1α, 25(OH)2D3 were added at 5×10^−6 M and 2×10^−6 M, respectively. Then, 1 μl per well each of ethanol solutions of the glutathione derivatives at 1×10^−4 M to 1×10^−2 M was added. As the solvent treatment for the control, 1 μl of ethanol per well was added in stead of the glutathione derivative, and as the single treatment of glutathione derivatives, 1 μl of ethanol per well was added in stead of the differentiation induction substance. After culturing at 37° C. and 5% CO2 for 4 days, the cells were recovered by centrifugation (1500 rpm, 5 minutes).
(3) The measurement of a nitroblue tetrazolium (NBT) reducing activity which is often used for the evaluation of differentiation induction effects on monocytes/macrophages or granulocytic cells was carried out according to the following procedure. Thus, the cells recovered by centrifugation in (2) were suspended in a fresh culture medium, and then NBT was added thereto to […] and 12-O-tetradecanoyl phorbol-13-acetate to 100 nM. After incubating at 37° C. for 25 minutes, cytospin samples were prepared. After air drying, the cells were subjected to Kernechtrot stain, and 500 cells per sample were examined under alight microscope to determine the ratio of the NBT reduction activity-positive cells.
(4) The result of the experiment in which glutathione derivatives at 10^−7 to 10^−5 M were treated together with a differentiation induction substances is shown in Table 4. For a single treatment of each glutathione derivative up to 10^−5 M, no increases in the NBT reducing activity was observed. In a combined treatment of a glutathione derivative and a differentiation induction substance, an enhanced ratio of the NBT reduction activity-positive cells relative to the single treatment with a differentiation induction substance was observed depending on the concentration of the glutathione derivative. There were no major differences observed in the strength of effects between the glutathione derivatives of Examples 4 and 11 and Comparative Examples 1, and 2.

[4] = tested on: rat models of suppressed hematopoietic function by 5-FU administration; experiment: Recovery of neutrophil counts in rat models of suppressed hematopoietic function by 5-FU (Example 26); assay type: in vivo; conditions: 5-FU rats; 10 μg/kg-body weight/day, days 2-10; day 4 and from day 8
From the text: Regarding the effect of promoting the recovery of neutrophil counts in rat models of suppressed hematopoietic function by 5-fuluorouracil administration, statistical significance was compared to the control group to compare the pharmaceutical composition containing Example 4 of the present invention as an active ingredient with the pharmaceutical composition of the conventional technology of Comparative Example 1 and granulocyte colony-stimulating factor (G-CSF).
(1) Animals used and the keeping condition: Male SD rats, 6-week old, purchased from Nippon SLC were used. The animal feed (manufactured by Oriental Yeast Co., Ltd.) and drinking water (well water treated with 0.4±0.2 ppm hypochlorous acid) were given ad libitum during the period of the experiment. The animals were housed in a hanging-type rat cage (manufactured by Nippon Cage K.K.) and kept at a temperature of 24±2° C. and a humidity of 55±5%.
(2) Creation of rat models of suppressed hematopoietic function by 5-FU administration; Creation of rat models of suppressed hematopoietic function by 5-FU (Kyowa Hakko Kogyo Co. Ltd.) administration was carried out based on the method of Akamatsu et al. (Yakuri to Chiryo(Pharmacology and Therapy), 18. (Suppl. 9), 317-356 (1990)). Thus, on the first day of the experiment, 5-FU at 50 mg/kg-body weight (dosage volume is 1 ml/kg-body weight) or the same amount of physiological saline (manufactured by Fuso Pharmaceuticals Industries, Ltd.) was intraperitoneally administered to the rats described in (1). On days 4, and 7-12, blood was drawn from the jugular vein and the EDTA-2K-treated blood was obtained. The blood was used to determine the neutrophil count using a general chemistry test instrument (Technicon H-1E, manufactured by Bayer-Sankyo K.K.) and the ratio of reticulocytes using a reticulocyte determination instrument (EPICS, XL-MCL, manufactured by Coulter K.K.). Blood was also drawn on day 1 of the experiment, and the values determined for the blood were used as the pre-administration values.
In the physiological saline administration group, no changes in neutrophil count were observed throughout the experiment period, whereas in the 5-FU administration group there was a reduction in neutrophil count with the lowest value observed on day 8 of the experiment, and the neutrophil count was recovered to the value before 5-FU administration or higher on day 10 of the experiment or after. The above results confirmed that rat models of suppressed hematopoietic function can be created by a single intraperitoneal administration of 5-FU at 50 mg/kg-body weight.
(3) Evaluation of Example 4 and Comparative Example 1 in the above model; To the model described in (2), the glutathione derivative of Example 4 combined with the fat emulsion at 10 to 30 mg/kg-body weight/day or the glutathione derivative of Comparative Example 1 dissolved in a physiological saline containing 2.5% hydroxypropyl-β-cyclodextrin at 50 mg/kg-body weight/day was repeatedly administered into the tail vein for 9 days from day 2 to 10 of the experiment. The recombinant human G-CSF formulation (hereinafter referred to as G-CSF, manufactured by Chugai Pharmaceutical Co., Ltd.) as the positive control at 10 μg/kg-body weight/day and the empty fat emulsion as the negative control were administered in a similar manner. […]

Decomposition rate constant by swine liver esterase (swine liver esterase): 88.5 10^−4/unit/min
Half life in rabbit plasma ([1]; rabbit, plasma): 3.02 h
Decomposition rate constant by rabbit liver esterase (rabbit liver esterase): 54.2 10^−4/unit/min
Molecule: CCCCCCCCCCOC(=O)[C@H](NC(=O)[C@H](CSCc1ccccc1)NC(=O)CC[C@H](N)C(=O)OCC)c1ccccc1.Cl [Comparative Example 4, Glu(Cys(Bzl)-D-Phg-O(Decyl))-OEt Hydrochloride, reference compound]

Decomposition rate constant by rabbit liver esterase (rabbit liver esterase): 0.523 10^−4/unit/min
Molecule: CCCCCCCCCCCCCCCCCCCCCCOC(=O)[C@@H](N)CCC(=O)N[C@@H](CSCc1ccccc1)C(=O)N[C@@H](C(=O)OCC)c1ccccc1.Cl [Example 2, Glu(Cys(Bzl)-D-Phg-OEt)-O(Docosyl)hydrochloride]
Clearance per body weight [2]: 0.83 mL/min/kg
Distribution volume per body weight of the central compartment [2]: 0.07 L/kg

Molecule: CCCCCCCCCCCCCCOC(=O)[C@@H](N)CCC(=O)N[C@@H](CSCc1ccccc1)C(=O)N[C@@H](C(=O)OCC)c1ccccc1.Cl [Example 6, Glu(Cys(Bzl)-D-Phg-OEt)-O(Tetradecyl)hydrochloride]
Clearance per body weight [2]: 4.83 mL/min/kg
Distribution volume per body weight of the central compartment [2]: 0.08 L/kg
Decomposition rate constant by swine liver esterase (swine liver esterase): 2.61 10^−4/unit/min
Half life in rabbit plasma ([1]; heparinized plasma, 250-323 μg/ml): 18.07 h
Decomposition rate constant by rabbit liver esterase (rabbit liver esterase): 5.11 10^−4/unit/min

Molecule: CCCCCCCCCCCCCCCCOC(=O)[C@H](NC(=O)[C@H](CSCc1ccccc1)NC(=O)CC[C@H](N)C(=O)O)c1ccccc1.Cl [Example 11, Glu(Cys(Bzl)-D-Phg-O(Hexadecyl))Hydrochloride]
Ratio of NBT reduction activity-positive cells ([3]; compound 10^−5 M, Solvent control (EtOH), no differentiation induction substance): 0.8%
Ratio of NBT reduction activity-positive cells ([3]; compound 10^−5 M, with 1α,25(OH)2D3 (2 × 10^−9 M)): 13.8%
Ratio of NBT reduction activity-positive cells ([3]; compound 10^−5 M, with 9-cis-RA (5 × 10^−9 M)): 19.8%
Ratio of NBT reduction activity-positive cells ([3]; compound 10^−6 M, Solvent control (EtOH), no differentiation induction substance): 0.2%
Ratio of NBT reduction activity-positive cells ([3]; compound 10^−6 M, with 1α,25(OH)2D3 (2 × 10^−9 M)): 4.8%
Ratio of NBT reduction activity-positive cells ([3]; compound 10^−6 M, with 9-cis-RA (5 × 10^−9 M)): 11.2%
Ratio of NBT reduction activity-positive cells ([3]; compound 10^−7 M, Solvent control (EtOH), no differentiation induction substance): 0.6%
Ratio of NBT reduction activity-positive cells ([3]; compound 10^−7 M, with 1α,25(OH)2D3 (2 × 10^−9 M)): 5.1%
Ratio of NBT reduction activity-positive cells ([3]; compound 10^−7 M, with 9-cis-RA (5 × 10^−9 M)): 8.8%

B1: G-CSF: recombinant human G-CSF formulation, manufactured by Chugai Pharmaceutical Co., Ltd., positive control (protein, UniProt P09919 31-207, looked up)
Granulocyte …: TPLGPASSLPQSFLLKCLEQVRKIQGDGAALQEKLVSECATYKLCHPEELVLLGHSLGIPWAPLSSCPSQALQLAGCLSQLHSGLFLYQGLLQALEGISPELGPTLDTLQLDVADFATTIWQQMEELGMAPALQPTQGAMPAFASAFQRRAGGVLVASHLQSFLEVSYRVLRHLAQP
Neutrophil counts relative to the negative control group [4]: statistically significant increase in neutrophil counts
